Starred links: 1 amine or outer side, 2 acyl side, 3 side chain; linkers in the order of their positions; H or OH if unused. Positions of bridges follow the written chain, without caps; N, C: chain ends. Non-standard residues stand in square brackets, D forms with d. Residues, ends and D or L forms follow the SMILES beside them. *: point of attachment. hPhe(3-Cl-4-CF3) = N[C@@H](CCc1ccc(C(F)(F)F)c(Cl)c1)C(=O)O; NMePhe(4-Me) = CN[C@@H](Cc1ccc(C)cc1)C(=O)O; NMePhe(2-Cl) = CN[C@@H](Cc1ccccc1Cl)C(=O)O; NMePhe(3-F) = CN[C@@H](Cc1cccc(F)c1)C(=O)O; NMedβ3hAla = C[C@H](CC(=O)[*:2])N(C)[*:1]; NMeGly(cPent) = CN[C@H](C(=O)O)C1CCCC1; Phe(3-I) = N[C@@H](Cc1cccc(I)c1)C(=O)O; NMeCha = CN[C@@H](CC1CCCCC1)C(=O)O; NMeChg = CN[C@H](C(=O)O)C1CCCCC1; d(β3hL) = CC(C)C[C@@H](N)CC(=O)O; hPhe = N[C@@H](CCc1ccccc1)C(=O)O; N(CH2CH2)2CF2 = FC1(F)CCN(*)CC1; NMeD = CN[C@@H](CC(=O)O)C(=O)O; NMeL = CN[C@@H](CC(C)C)C(=O)O; NMeNva = CCC[C@H](NC)C(=O)O; NMeV = CN[C@H](C(=O)O)C(C)C; d(β3hA) = C[C@@H](N)CC(=O)O; dIva = CC[C@@](C)(N)C(=O)O; Ac6c = NC1(C(=O)O)CCCCC1; NMeA = CN[C@@H](C)C(=O)O; NMeAib = CNC(C)(C)C(=O)O; Piperidide = C1CCN(*)CC1; Pyrrolidide = C1CCN(*)C1; Ac5c = NC1(C(=O)O)CCCC1; Aze = O=C(O)[C@@H]1CCN1; βAla = NCCC(=O)O; Sar = CNCC(=O)O
Each compound was assayed against T1, Kras and SOS1 (biotin-tagged human Kras loaded with GDP, His-tagged human SOS1) (Homo sapiens, UniProt P01116, G12D) (assay: Protein-protein interaction inhibition between Kras and SOS1 (KrasGl2D-SOS PPI) using AlphaScreen). Details: AlphaScreen; biotin-tagged human Kras loaded with GDP, His-tagged human SOS1; read-out: KRAS G12D-SOS PPI IC50.
T1 construct: made in house; host or cells: E. coli (stated for Kras only)
T1 sequence (P01116 1-188 isoform P01116-2 G12D): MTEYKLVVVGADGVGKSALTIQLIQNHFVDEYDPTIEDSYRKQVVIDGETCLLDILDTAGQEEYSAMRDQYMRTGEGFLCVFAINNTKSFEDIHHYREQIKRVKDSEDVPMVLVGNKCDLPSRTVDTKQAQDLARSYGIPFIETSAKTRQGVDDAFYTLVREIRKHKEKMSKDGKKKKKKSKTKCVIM
Format: binding
Procedure, shortened: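 Kras was produced in E. coli, purified, then loaded with GDP. It was paired via streptavidin acceptor beads with His-SOS1 held on nickel donor beads, and proximity signal at 520-620 nm was read after 680 nm illumination.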
Compound `CC[C@H](C)[C@@H]1NC(=O)[C@H](CC(C)C)N(C)C(=O)C[C@@H](C(=O)N2CCCCC2)N(C)C(=O)[C@H](C2CCCC2)N(C)C(=O)C2(CCCC2)NC(=O)[C@H](CC(=O)N2CCC(F)(F)CC2)N(C)C(=O)[C@H](CCc2ccc(C(F)(F)F)c(Cl)c2)NC(=O)CN(C)C(=O)[C@H](CC2CCCCC2)N(C)C(=O)[C@@H]2CCN2C(=O)[C@H](C)N(C)C1=O` [Compound 984] ([NMeL]I[NMeA][Aze][NMeCha][Sar][hPhe(3-Cl-4-CF3)][NMeD](N(CH2CH2)2CF2)[Ac5c][NMeGly(cPent)][NMeD]-Piperidide; lactam N-11) has an IC50 of 25 nM.
In the case of `CC[C@H](C)[C@@H]1NC(=O)[C@H](CC(C)C)N(C)C(=O)C[C@@H](CC(C)C)NC(=O)[C@H](C(C)C)N(C)C(=O)C2(CCCC2)NC(=O)[C@@H]2CCCN2C(=O)[C@H](CCc2ccc(C(F)(F)F)c(Cl)c2)NC(=O)CN(C)C(=O)[C@H](CC2CCCCC2)N(C)C(=O)CN(C)C(=O)CN(C)C1=O` [Compound 1032] (cyclo([Ac5c][NMeV][d(β3hL)][NMeL]I[Sar][Sar][NMeCha][Sar][hPhe(3-Cl-4-CF3)]P)), the IC50 is reported as 60 nM.
In the case of `CC[C@H](C)[C@@H]1NC(=O)[C@H](C)N(C)C(=O)C[C@@H](C(=O)N2CCCC2)N(C)C(=O)[C@H](C(C)C)N(C)C(=O)[C@H](C)NC(=O)[C@H](Cc2ccccc2Cl)N(C)C(=O)[C@H](CCc2ccc(C(F)(F)F)c(Cl)c2)NC(=O)CN(C)C(=O)[C@H](CC2CCCCC2)N(C)C(=O)CN(C)C(=O)CN(C)C1=O` [Compound 624] ([NMeA]I[Sar][Sar][NMeCha][Sar][hPhe(3-Cl-4-CF3)][NMePhe(2-Cl)]A[NMeV][NMeD]-Pyrrolidide; lactam N-11), the IC50 is reported as 160 nM.
`CC[C@H](C)[C@@H]1NC(=O)[C@H](CC(C)C)N(C)C(=O)C[C@@H](C(=O)N2CCCCC2)N(C)C(=O)[C@H](C2CCCCC2)N(C)C(=O)C2(CCCCC2)NC(=O)[C@@H]2CCCN2C(=O)[C@H](CCc2ccc(C(F)(F)F)c(Cl)c2)NC(=O)CN(C)C(=O)[C@H](CC2CCCCC2)N(C)C(=O)CN(C)C(=O)CN(C)C1=O` [Compound 1644] ([NMeL]I[Sar][Sar][NMeCha][Sar][hPhe(3-Cl-4-CF3)]P[Ac6c][NMeChg][NMeD]-Piperidide; lactam N-11) showed an IC50 of 3.1 nM.
`CC[C@H](C)[C@@H]1NC(=O)[C@H](CC(C)C)N(C)C(=O)C[C@@H](C)N(C)C(=O)[C@H](CC(C)C)NC(=O)C(C)(C)N(C)C(=O)[C@H](CC(C)C)NC(=O)[C@H](CCc2ccc(C(F)(F)F)c(Cl)c2)NC(=O)CN(C)C(=O)[C@H](Cc2ccc(C)cc2)N(C)C(=O)[C@@H]2CCN2C(=O)CN(C)C1=O` [Compound 1386] (cyclo([Aze][NMePhe(4-Me)][Sar][hPhe(3-Cl-4-CF3)]L[NMeAib]L[NMedβ3hAla][NMeL]I[Sar])) gave an IC50 of 10 nM.
With `CC[C@H](C)[C@@H]1NC(=O)[C@H](CC(C)C)N(C)C(=O)C[C@@H](C(=O)N2CCCCC2)N(C)C(=O)[C@H](CC(C)C)NC(=O)C(C)(C)N(C)C(=O)[C@H](CCc2ccccc2)NC(=O)[C@H](Cc2cccc(I)c2)NC(=O)CN(C)C(=O)[C@H](Cc2ccc(C)cc2)N(C)C(=O)[C@@H]2CCN2C(=O)[C@H](C)N(C)C1=O` [Compound 617] ([NMeL]I[NMeA][Aze][NMePhe(4-Me)][Sar][Phe(3-I)][hPhe][NMeAib]L[NMeD]-Piperidide; lactam N-11) the IC50 was 110 nM.
Compound `CC[C@H](C)[C@@H]1NC(=O)CCNC(=O)[C@H](Cc2cccc(F)c2)N(C)C(=O)[C@H](C2CCCCC2)N(C)C(=O)C2(CCCC2)NC(=O)[C@@H]2CCCN2C(=O)[C@H](CCc2ccc(C(F)(F)F)c(Cl)c2)NC(=O)CN(C)C(=O)[C@H](CC2CCCCC2)N(C)C(=O)CN(C)C(=O)CN(C)C1=O` [Compound 237] (cyclo([Ac5c][NMeChg][NMePhe(3-F)][βAla]I[Sar][Sar][NMeCha][Sar][hPhe(3-Cl-4-CF3)]P)) has an IC50 of 42 nM.
Work on `CCC[C@H]1C(=O)N(C)CC(=O)N[C@@H](CCc2ccc(C(F)(F)F)c(Cl)c2)C(=O)N2CCC[C@H]2C(=O)NC2(CCCC2)C(=O)N(C)[C@@H](C2CCCCC2)C(=O)N(C)[C@H](C(=O)N2CCCCC2)CC(=O)N(C)[C@@H](CC(C)C)C(=O)N[C@@H]([C@@H](C)CC)C(=O)N(C)CC(=O)N(C)CC(=O)N1C` [Compound 187] ([NMeL]I[Sar][Sar][NMeNva][Sar][hPhe(3-Cl-4-CF3)]P[Ac5c][NMeChg][NMeD]-Piperidide; lactam N-11) yielded an IC50 of 3.2 nM.
`CC[C@H](C)[C@@H]1NC(=O)[C@H](CC(C)C)N(C)C(=O)C[C@@H](C)NC(=O)[C@H](C(C)C)N(C)C(=O)[C@@](C)(CC)NC(=O)[C@@H]2CCCN2C(=O)[C@H](CCc2ccc(C(F)(F)F)c(Cl)c2)NC(=O)CN(C)C(=O)[C@H](CC2CCCCC2)N(C)C(=O)CN(C)C(=O)CN(C)C1=O` [Compound 275] (cyclo(I[Sar][Sar][NMeCha][Sar][hPhe(3-Cl-4-CF3)]P[dIva][NMeV][d(β3hA)][NMeL])) was tested, and the IC50 was 46 nM.
